Key:
Test in all cases: Off-target kinase profiling (KinaseProfiler)
Format in all cases: biochemical
Conditions in all cases: 10 μM, ATP near Km
[1] = biological target: T1, AKT3 (Homo sapiens, UniProt Q9Y243)
T1 construct: purchased Millipore, Inc. (KinaseProfiler service)
Summary of the method: (§1)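 Broad-panel profiling at one concentration (10 μM). The ATP level was adjusted to approximate each kinase's Km. Values are POC averaged over duplicates.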

[2] = biological target: T2, ALK4 (Homo sapiens, UniProt P36896)
T2 construct: purchased Millipore, Inc. (KinaseProfiler service)
T2 sequence (P36896 24-505): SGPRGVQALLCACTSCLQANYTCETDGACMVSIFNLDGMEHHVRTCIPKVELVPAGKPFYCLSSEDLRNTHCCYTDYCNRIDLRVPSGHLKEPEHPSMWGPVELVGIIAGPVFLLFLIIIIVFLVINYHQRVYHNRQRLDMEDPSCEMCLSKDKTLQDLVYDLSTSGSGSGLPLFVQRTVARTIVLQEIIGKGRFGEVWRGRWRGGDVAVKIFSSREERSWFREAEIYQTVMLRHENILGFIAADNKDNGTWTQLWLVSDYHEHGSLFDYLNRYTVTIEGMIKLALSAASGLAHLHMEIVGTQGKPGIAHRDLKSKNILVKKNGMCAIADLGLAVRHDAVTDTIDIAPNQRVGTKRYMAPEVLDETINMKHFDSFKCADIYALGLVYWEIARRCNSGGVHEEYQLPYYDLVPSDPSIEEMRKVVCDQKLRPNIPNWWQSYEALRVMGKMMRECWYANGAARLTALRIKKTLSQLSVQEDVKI
Summary of the method: as §1

[3] = biological target: T3, AMPK(A1/B1/G1) (Homo sapiens, UniProt Q13131)
T3 construct: purchased Millipore, Inc. (KinaseProfiler service)
Summary of the method: as §1

[4] = biological target: T4, BLK_m (Mus musculus, UniProt P16277)
T4 construct: purchased Millipore, Inc. (KinaseProfiler service)
Summary of the method: as §1

[5] = biological target: T5, CAMK1 (Homo sapiens, UniProt Q14012)
T5 construct: purchased Millipore, Inc. (KinaseProfiler service)
T5 sequence (Q14012 whole entry): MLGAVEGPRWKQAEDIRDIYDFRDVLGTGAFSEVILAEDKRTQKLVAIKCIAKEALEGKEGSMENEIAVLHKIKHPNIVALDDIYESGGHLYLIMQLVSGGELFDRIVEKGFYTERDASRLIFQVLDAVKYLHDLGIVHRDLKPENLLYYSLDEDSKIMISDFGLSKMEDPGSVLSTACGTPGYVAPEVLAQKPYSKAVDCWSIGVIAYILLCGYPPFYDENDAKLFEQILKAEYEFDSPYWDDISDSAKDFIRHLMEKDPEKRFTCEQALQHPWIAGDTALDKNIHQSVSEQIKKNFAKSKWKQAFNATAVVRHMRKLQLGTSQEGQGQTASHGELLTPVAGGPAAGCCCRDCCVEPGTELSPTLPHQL
Summary of the method: as §1

[6] = biological target: T6, CAMK2b (Homo sapiens, UniProt Q13554)
T6 construct: purchased Millipore, Inc. (KinaseProfiler service)
Summary of the method: as §1

[7] = biological target: T7, CAMK2d (Homo sapiens, UniProt Q13557)
T7 construct: purchased Millipore, Inc. (KinaseProfiler service)
Summary of the method: as §1

[8] = biological target: T8, CDK2/cyclinA (Homo sapiens, UniProt P24941)
T8 construct: purchased Millipore, Inc. (KinaseProfiler service)
Summary of the method: as §1

[9] = biological target: T9, CDK3/cyclinE (Homo sapiens, UniProt Q00526)
T9 construct: purchased Millipore, Inc. (KinaseProfiler service)
Summary of the method: as §1

[10] = biological target: T10, CDK5/p25 (Homo sapiens, UniProt Q00535)
T10 construct: purchased Millipore, Inc. (KinaseProfiler service)
Summary of the method: as §1

[11] = biological target: T11, CHK1 (Homo sapiens, UniProt O14757)
T11 construct: purchased Millipore, Inc. (KinaseProfiler service)
Summary of the method: as §1

[12] = biological target: T12, CLK3 (Homo sapiens, UniProt P49761)
T12 construct: purchased Millipore, Inc. (KinaseProfiler service)
Summary of the method: as §1

[13] = biological target: T13, CSK (Homo sapiens, UniProt P41240)
T13 construct: purchased Millipore, Inc. (KinaseProfiler service)
Summary of the method: as §1

[14] = biological target: T14, DAPK1 (Homo sapiens, UniProt P53355)
T14 construct: purchased Millipore, Inc. (KinaseProfiler service)
Summary of the method: as §1

[15] = biological target: T15, DCAMKL2 (Homo sapiens, UniProt Q8N568)
T15 construct: purchased Millipore, Inc. (KinaseProfiler service)
Summary of the method: as §1

[16] = biological target: T16, EGFR (Homo sapiens, UniProt P00533)
T16 construct: purchased Millipore, Inc. (KinaseProfiler service)
Summary of the method: as §1

[17] = biological target: T17, EphA8 (Homo sapiens, UniProt P29322)
T17 construct: purchased Millipore, Inc. (KinaseProfiler service)
Summary of the method: as §1

[18] = biological target: T18, EphB1 (Homo sapiens, UniProt P54762)
T18 construct: purchased Millipore, Inc. (KinaseProfiler service)
Summary of the method: as §1

[19] = biological target: T19, ErbB4 (Homo sapiens, UniProt Q15303)
T19 construct: purchased Millipore, Inc. (KinaseProfiler service)
Summary of the method: as §1

[20] = biological target: T20, FAK2 (Homo sapiens, UniProt Q14289)
T20 construct: purchased Millipore, Inc. (KinaseProfiler service)
T20 sequence (Q14289 whole entry): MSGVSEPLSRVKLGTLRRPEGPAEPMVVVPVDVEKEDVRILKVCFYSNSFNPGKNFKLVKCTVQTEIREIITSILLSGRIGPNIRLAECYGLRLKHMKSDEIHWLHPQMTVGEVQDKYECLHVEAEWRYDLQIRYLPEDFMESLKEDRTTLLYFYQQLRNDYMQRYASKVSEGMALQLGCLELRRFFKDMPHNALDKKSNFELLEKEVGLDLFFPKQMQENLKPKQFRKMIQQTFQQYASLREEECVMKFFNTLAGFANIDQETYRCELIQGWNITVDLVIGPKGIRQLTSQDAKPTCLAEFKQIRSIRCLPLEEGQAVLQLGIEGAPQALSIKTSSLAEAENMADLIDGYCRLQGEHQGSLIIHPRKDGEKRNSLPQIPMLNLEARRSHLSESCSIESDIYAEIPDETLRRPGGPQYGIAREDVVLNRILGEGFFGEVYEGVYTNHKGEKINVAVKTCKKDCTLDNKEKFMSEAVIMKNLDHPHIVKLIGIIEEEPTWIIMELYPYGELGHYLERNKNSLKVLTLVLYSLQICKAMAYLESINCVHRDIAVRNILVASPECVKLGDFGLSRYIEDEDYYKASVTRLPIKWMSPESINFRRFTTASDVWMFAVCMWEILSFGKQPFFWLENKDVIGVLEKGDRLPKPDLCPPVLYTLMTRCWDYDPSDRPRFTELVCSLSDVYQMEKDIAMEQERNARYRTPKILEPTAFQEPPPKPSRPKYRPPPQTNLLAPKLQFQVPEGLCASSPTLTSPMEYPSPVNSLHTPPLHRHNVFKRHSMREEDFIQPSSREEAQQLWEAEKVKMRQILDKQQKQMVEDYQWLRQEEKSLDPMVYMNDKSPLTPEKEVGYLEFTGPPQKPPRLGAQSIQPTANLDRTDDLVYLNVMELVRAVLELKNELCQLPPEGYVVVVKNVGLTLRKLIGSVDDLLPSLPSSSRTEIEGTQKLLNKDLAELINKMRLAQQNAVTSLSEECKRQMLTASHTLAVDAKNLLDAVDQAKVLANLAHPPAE
Summary of the method: as §1

[21] = biological target: T21, FGFR4 (Homo sapiens, UniProt P22455)
T21 construct: purchased Millipore, Inc. (KinaseProfiler service)
Summary of the method: as §1

[22] = biological target: T22, GRK6 (Homo sapiens, UniProt P43250)
T22 construct: purchased Millipore, Inc. (KinaseProfiler service)
Summary of the method: as §1

[23] = biological target: T23, GSK3beta (Homo sapiens, UniProt P49841)
T23 construct: purchased Millipore, Inc. (KinaseProfiler service)
Summary of the method: as §1

[24] = biological target: T24, HIPK2 (Homo sapiens, UniProt Q9H2X6)
T24 construct: purchased Millipore, Inc. (KinaseProfiler service)
T24 sequence (Q9H2X6 whole entry): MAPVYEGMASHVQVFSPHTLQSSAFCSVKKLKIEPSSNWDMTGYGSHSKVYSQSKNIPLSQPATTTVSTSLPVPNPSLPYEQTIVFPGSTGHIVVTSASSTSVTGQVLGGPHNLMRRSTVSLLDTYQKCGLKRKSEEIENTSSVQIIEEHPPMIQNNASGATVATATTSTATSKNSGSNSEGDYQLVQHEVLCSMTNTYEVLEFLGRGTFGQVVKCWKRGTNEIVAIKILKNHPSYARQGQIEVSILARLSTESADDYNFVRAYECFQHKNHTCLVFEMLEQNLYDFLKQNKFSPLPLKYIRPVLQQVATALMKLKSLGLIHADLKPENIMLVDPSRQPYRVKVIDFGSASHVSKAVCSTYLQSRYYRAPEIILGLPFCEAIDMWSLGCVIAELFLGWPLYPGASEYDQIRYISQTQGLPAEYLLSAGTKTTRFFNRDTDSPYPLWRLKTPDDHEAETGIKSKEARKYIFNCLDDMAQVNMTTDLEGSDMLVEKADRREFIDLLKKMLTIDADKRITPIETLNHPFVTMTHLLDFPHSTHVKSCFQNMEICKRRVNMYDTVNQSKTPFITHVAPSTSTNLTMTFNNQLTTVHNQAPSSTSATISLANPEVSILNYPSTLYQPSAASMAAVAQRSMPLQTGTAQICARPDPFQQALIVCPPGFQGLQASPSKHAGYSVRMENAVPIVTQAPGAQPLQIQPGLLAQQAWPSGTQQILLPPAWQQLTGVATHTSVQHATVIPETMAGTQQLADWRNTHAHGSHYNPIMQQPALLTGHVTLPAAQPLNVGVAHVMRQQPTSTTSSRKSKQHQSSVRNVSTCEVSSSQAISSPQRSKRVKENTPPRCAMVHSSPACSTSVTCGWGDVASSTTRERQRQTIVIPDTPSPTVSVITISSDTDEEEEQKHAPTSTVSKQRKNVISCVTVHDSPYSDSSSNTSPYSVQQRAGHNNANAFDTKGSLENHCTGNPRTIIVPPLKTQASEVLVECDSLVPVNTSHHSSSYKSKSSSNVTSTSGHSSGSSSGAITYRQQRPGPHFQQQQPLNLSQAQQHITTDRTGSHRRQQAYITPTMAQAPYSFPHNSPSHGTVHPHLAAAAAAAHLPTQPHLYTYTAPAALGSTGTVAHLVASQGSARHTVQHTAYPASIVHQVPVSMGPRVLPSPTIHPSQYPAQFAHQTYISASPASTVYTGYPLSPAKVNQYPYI
Summary of the method: as §1

[25] = biological target: T25, IRAK1 (Homo sapiens, UniProt P51617)
T25 construct: purchased Millipore, Inc. (KinaseProfiler service)
Summary of the method: as §1

[26] = biological target: T26, JNK2alpha2 (Homo sapiens, UniProt P45984)
T26 construct: purchased Millipore, Inc. (KinaseProfiler service)
Summary of the method: as §1

[27] = biological target: T27, KDR (Homo sapiens, UniProt P35968)
T27 construct: purchased Millipore, Inc. (KinaseProfiler service)
Summary of the method: as §1

[28] = biological target: T28, MAP4K2 (Homo sapiens, UniProt Q12851)
T28 construct: purchased Millipore, Inc. (KinaseProfiler service)
T28 sequence (Q12851 whole entry): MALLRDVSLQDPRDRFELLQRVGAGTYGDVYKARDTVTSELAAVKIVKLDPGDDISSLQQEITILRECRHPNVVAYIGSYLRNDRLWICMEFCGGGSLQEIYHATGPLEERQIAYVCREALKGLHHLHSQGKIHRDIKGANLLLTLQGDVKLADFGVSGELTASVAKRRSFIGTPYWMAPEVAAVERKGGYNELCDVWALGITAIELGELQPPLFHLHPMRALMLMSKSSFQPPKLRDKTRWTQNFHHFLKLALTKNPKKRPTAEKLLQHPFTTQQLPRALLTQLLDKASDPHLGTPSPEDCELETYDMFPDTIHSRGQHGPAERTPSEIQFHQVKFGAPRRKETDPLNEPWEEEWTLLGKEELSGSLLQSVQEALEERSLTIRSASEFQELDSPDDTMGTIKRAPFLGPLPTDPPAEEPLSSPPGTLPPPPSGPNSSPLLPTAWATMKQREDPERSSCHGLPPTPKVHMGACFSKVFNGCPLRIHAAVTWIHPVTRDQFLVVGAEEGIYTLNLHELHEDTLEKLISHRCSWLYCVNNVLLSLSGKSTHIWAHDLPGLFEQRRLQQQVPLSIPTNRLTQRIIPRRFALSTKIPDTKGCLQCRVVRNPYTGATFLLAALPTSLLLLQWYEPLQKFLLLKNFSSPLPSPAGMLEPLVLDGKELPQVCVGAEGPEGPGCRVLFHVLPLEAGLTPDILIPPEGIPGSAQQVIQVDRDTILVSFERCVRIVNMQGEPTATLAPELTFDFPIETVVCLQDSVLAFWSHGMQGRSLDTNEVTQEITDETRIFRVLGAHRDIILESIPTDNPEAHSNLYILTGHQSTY
Summary of the method: as §1

[29] = biological target: T29, MAPKAP-K3 (Homo sapiens, UniProt Q16644)
T29 construct: purchased Millipore, Inc. (KinaseProfiler service)
Summary of the method: as §1

[30] = biological target: T30, Mer (Homo sapiens, UniProt Q12866)
T30 construct: purchased Millipore, Inc. (KinaseProfiler service)
Summary of the method: as §1

[31] = biological target: T31, NEK11 (Homo sapiens, UniProt Q8NG66)
T31 construct: purchased Millipore, Inc. (KinaseProfiler service)
Summary of the method: as §1

[32] = biological target: T32, PDGFRalpha (Homo sapiens, UniProt P16234)
T32 construct: purchased Millipore, Inc. (KinaseProfiler service)
Summary of the method: as §1

[33] = biological target: T33, PDGFRbeta (Homo sapiens, UniProt P09619)
T33 construct: purchased Millipore, Inc. (KinaseProfiler service)
Summary of the method: as §1

[34] = biological target: T34, PKCepsilon (Homo sapiens, UniProt Q02156)
T34 construct: purchased Millipore, Inc. (KinaseProfiler service)
Summary of the method: as §1

[35] = biological target: T35, PKCtheta (Homo sapiens, UniProt Q04759)
T35 construct: purchased Millipore, Inc. (KinaseProfiler service)
Summary of the method: as §1

[36] = biological target: T36, PRK2 (Homo sapiens, UniProt Q16513)
T36 construct: purchased Millipore, Inc. (KinaseProfiler service)
Summary of the method: as §1

[37] = biological target: T37, PRKG1alpha (Homo sapiens, UniProt Q13976)
T37 construct: purchased Millipore, Inc. (KinaseProfiler service)
Summary of the method: as §1

[38] = biological target: T38, Rsk3 (Homo sapiens, UniProt Q15349)
T38 construct: purchased Millipore, Inc. (KinaseProfiler service)
Summary of the method: as §1

[39] = biological target: T39, SIK (Homo sapiens, UniProt P57059)
T39 construct: purchased Millipore, Inc. (KinaseProfiler service)
Summary of the method: as §1

[40] = biological target: T40, SRPK1 (Homo sapiens, UniProt Q96SB4)
T40 construct: purchased Millipore, Inc. (KinaseProfiler service)
Summary of the method: as §1

[41] = biological target: T41, TNK2 (Homo sapiens, UniProt Q07912)
T41 construct: purchased Millipore, Inc. (KinaseProfiler service)
T41 sequence (Q07912 whole entry): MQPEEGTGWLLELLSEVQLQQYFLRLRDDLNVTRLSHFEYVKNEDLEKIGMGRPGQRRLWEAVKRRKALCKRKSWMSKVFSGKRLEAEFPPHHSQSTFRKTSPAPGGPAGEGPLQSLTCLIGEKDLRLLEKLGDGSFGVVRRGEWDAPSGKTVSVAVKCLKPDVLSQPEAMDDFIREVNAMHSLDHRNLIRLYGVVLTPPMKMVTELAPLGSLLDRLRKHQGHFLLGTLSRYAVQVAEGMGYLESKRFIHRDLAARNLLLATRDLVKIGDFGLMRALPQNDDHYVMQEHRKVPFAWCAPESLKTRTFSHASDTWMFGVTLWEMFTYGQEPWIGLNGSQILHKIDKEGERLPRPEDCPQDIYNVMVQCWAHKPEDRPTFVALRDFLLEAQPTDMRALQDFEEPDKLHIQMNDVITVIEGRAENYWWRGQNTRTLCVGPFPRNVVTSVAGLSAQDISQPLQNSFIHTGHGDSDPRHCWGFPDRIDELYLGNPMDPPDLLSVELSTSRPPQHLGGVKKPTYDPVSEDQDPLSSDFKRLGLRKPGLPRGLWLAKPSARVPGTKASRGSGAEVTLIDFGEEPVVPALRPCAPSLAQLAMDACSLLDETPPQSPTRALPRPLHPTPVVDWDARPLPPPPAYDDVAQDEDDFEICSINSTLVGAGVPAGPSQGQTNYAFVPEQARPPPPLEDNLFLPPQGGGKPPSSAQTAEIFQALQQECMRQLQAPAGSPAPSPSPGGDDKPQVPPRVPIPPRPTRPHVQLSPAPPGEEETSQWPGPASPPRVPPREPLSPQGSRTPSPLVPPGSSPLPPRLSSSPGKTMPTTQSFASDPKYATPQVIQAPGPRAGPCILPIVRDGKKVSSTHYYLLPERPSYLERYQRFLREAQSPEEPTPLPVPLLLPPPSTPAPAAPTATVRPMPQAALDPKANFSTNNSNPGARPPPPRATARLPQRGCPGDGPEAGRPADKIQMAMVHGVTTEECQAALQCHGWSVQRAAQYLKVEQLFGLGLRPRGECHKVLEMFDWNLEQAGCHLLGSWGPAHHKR
Summary of the method: as §1

COCc1ccc2cccc(NC(=O)Nc3c(C)c(-c4cnn(C)c4)nn3-c3ccccc3)c2c1 [Example 16, 1-(1′,4-dimethyl-1-phenyl-1H,1′H-[3,4′-bipyrazol]-5-yl)-3-(7-(methoxymethyl)naphthalen-1-yl)urea]
Avg POC [1]: 130.5 POC | Avg POC [2]: 104.5 POC | Avg POC [3]: 134.5 POC | Avg POC [4]: 106.5 POC | Avg POC [5]: 106 POC | Avg POC [6]: 105 POC | Avg POC [7]: 106.5 POC | Avg POC [8]: 136 POC | Avg POC [9]: 125 POC | Avg POC [10]: 110.5 POC | Avg POC [11]: 139.5 POC | Avg POC [12]: 107 POC | Avg POC [13]: 132 POC | Avg POC [14]: 118 POC | Avg POC [15]: 175 POC | Avg POC [16]: 106 POC | Avg POC [17]: 112.5 POC | Avg POC [18]: 122 POC | Avg POC [19]: 118 POC | Avg POC [20]: 117.5 POC | Avg POC [21]: 129 POC | Avg POC [22]: 106 POC | Avg POC [23]: 212 POC | Avg POC [24]: 97 POC | Avg POC [25]: 125 POC | Avg POC [26]: 126.5 POC | Avg POC [27]: 159 POC | Avg POC [28]: 110.5 POC | Avg POC [29]: 126.5 POC | Avg POC [30]: 116 POC | Avg POC [31]: 116 POC | Avg POC [32]: 132 POC | Avg POC [33]: 136.5 POC | Avg POC [34]: 137 POC | Avg POC [35]: 124.5 POC | Avg POC [36]: 142.5 POC | Avg POC [37]: 109.5 POC | Avg POC [38]: 106.5 POC | Avg POC [39]: 121 POC | Avg POC [40]: 119 POC | Avg POC [41]: 115 POC

Reference: patent US9546156B2, “N-bicyclic aryl,N'-pyrazolyl urea, thiourea, guanidine cyanoguanidine compounds as TrkA kinase inhibitors” (Array BioPharma Inc., priority 2012, dated 2017)
